We go through 14 compounds from US20110319379A1, “Substituted Indazole Amides And Their Use As Glucokinase Activators” (priority 2009, published 2011).

Molecules are shown by their SMILES.

Broadly, the EC50 is the midpoint of the concentration-response curve.

The first test has as its target T1, recombinant human glucokinase (beta cell isoform) (Homo sapiens, UniProt P35557).
T1 construct: Full-length glucokinase (beta cell isoform) was His-tagged at the N-terminus; His tag (N); made in house; host or cells: E. coli BL21(DE3), vector pBCGK
T1 sequence (P35557 1-465): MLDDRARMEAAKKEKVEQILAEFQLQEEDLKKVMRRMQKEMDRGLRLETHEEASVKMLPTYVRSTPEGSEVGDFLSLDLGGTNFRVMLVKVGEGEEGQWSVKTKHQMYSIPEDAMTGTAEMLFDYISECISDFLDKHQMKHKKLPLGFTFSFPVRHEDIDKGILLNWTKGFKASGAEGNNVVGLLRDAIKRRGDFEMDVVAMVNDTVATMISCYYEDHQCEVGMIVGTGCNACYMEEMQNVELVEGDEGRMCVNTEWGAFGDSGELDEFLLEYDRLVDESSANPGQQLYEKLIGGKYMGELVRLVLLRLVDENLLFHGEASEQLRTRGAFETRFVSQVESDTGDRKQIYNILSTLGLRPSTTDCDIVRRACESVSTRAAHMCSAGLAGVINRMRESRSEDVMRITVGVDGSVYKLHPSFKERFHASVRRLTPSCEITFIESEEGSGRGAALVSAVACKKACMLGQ
Nature of the test: Assay 1: Evaluating Activator Potency and Maximum Activation at 5 mM Glucose. Type of test: biochemical. The note with it: Assay 1; 5 mM glucose; NADH depletion at 340 nm, PK/LDH coupled; read-out: Glucokinase EC50. As for the experimental part: Representative compounds of this invention were evaluated in biochemical assays (Assay 1 or Assay 2) to characterize their glucokinase activation properties.
The recombinant human glucokinase protein utilized in both assays was prepared and purified as described below.
BL21(DE3) cells (Invitrogen Corporation, Carlsbad, Calif.) containing pBCGK (C or N H is) vector were grown at 37° C. (in 2XYT) until the OD600 was between 0.6-1.0. Expression was induced by addition of isopropylthiogalactoside to a final concentration of 0.1-0.2 mM to the cells which were then incubated overnight at 23° C. The next day, cells were harvested via centrifugation at 5000 rpm for 15 minutes at 4° C. The cell pellet was stored at −80° C. for future purification.
Beta Cell Glucokinase His-Taq Purification Conditions: A Ni-NTA (Quigan, Germantown, Md.) column (15-50 mL) was used for separation. Two buffers were prepared, 1) a lysis/nickel equilibration and wash buffer and 2) a nickel elution buffer. The lysis/equilibration/wash buffer was prepared as such: 25 mM HEPES buffer at pH 7.5, 250 mM NaCl, 20 mM imidazole, and 14 mM β-mercaptoethanol as final concentrations. The elution buffer was prepared as such: 25 mM HEPES at pH 7.5, 250 mM NaCl, 400 mM imidazole, and 14 mM β-mercaptoethanol as final concentrations. The buffers were each filtered with a 0.22 μm filter prior to use. The cell pellet (1 L culture) was resuspended in 300 mL of the lysis/equilibration buffer. The cells were then lysed (3 times) with a Microfluidics Model 110Y microfluidizer (Microfluidics Corporation, Newton, Mass.). The slurry was centrifuged with a Beckman Coulter Model LE-80K ultracentrifuge (Beckman Coulter, Fullerton, Calif.) at 40,000 rpm for 45 minutes at 4° C. The supernatant was transferred to a chilled flask. A volume of 20 μl was saved for gel analysis. A Pharmacia AKTA (GMI, Inc., Ramsey, Minn.) purification system was used for separation. The prime lines were purged with lysis/equilibration buffer. The Ni-NTA column was equilibrated with 200 mL of the lysis/equilibration buffer at a flow rate of 5 mL/minute. The supernantant was loaded over the column at 4 mL/minute and the flow-through was collected in a flask. The unbound proteins were washed with lysis/equilibration buffer at a flow rate of 5 mL/minute until the ultraviolet reaches baseline. The protein was then eluted from the column with the imidazole elution buffer via imidazole gradient 20 mM to 400 mM over 320 mL. The column was then stripped of any additional protein with 80 mL of the elution buffer. The elution fractions were each 8 mL, for a total yield of 50 samples. Fractions were analyzed by sodium dodecyl sulfate polyacrylamide (SDS-PAGE) and the fractions containing protein of interest were pooled and concentrated to 10 mL using ultrafiltration cell with a 10,000 molecular weight cut-off (MWCO) Millipore membrane (Sigma-Aldrich, St. Louis, Mo.) under nitrogen gas (60 psi). Protein was further purified by size exclusion chromatography (SEC) using a […] (320 mL) (Amersham Pharmacia, Uppsala, Sweden). SEC was equilibrated with 450 mL sizing buffer containing 25 mM HEPES pH 7.0, 50 mM NaCl, and 5 mM dithiothreitol. Concentrated protein was then loaded over SEC and elution with 400 mL sizing buffer was performed overnight at 0.5 mL/minute. The elution fractions were 5 mL each. The fractions were analyzed by SDS-PAGE and protein containing fractions were pooled. Concentration was measured using Bradford Assay/BSA Standard. Purified protein was stored in small aliquots at −80° C.
Assay 1: Evaluating Activator Potency and Maximum Activation at 5 mM Glucose
Full-length glucokinase (beta cell isoform) was His-tagged at the N-terminus and purified by a Ni column followed by size exclusion chromatography as described above. Glucose was obtained from Calbiochem (San Diego, Calif.) and other reagents were purchased from Sigma-Aldrich (St. Louis, Mo.).
With `Cc1ccc(NC(=O)c2cc(Oc3ccc(S(C)(=O)=O)cc3)c3cn(C)nc3c2)nc1` [Example 1M, 2-methyl-N-(5-methylpyridin-2-yl)-4-[4-(methylsulfonyl)phenoxy]-2H-indazole-6-carboxamide], the EC50 turned out to be 2.66 µM. As to `Cn1ccc(NC(=O)c2cc(Oc3ccc(S(C)(=O)=O)cc3)c3cn(C)nc3c2)n1` [Example 1N, 2-methyl-N-(1-methyl-1H-pyrazol-3-yl)-4-[4-(methylsulfonyl)phenoxy]-2H-indazole-6-carboxamide], the 50% effective concentration (EC50) is 8.54 µM.

On to `CCn1cc2c(Oc3cnc(C(=O)N(C)C)cn3)cc(C(=O)Nc3ccc(C)cn3)cc2n1` [Example 1O, 4-{[5-(dimethylcarbamoyl)pyrazin-2-yl]oxy}-2-ethyl-N-(5-methylpyridin-2-yl)-2H-indazole-6-carboxamide], for which the EC50 amounted to 0.776 µM.

`CCn1cc2c(Oc3cnc(C(=O)N(C)C)cn3)cc(C(=O)Nc3cnc(C)cn3)cc2n1` [Example 1P, 4-{[5-(dimethylcarbamoyl)pyrazin-2-yl]oxy}-2-ethyl-N-(5-methylpyrazin-2-yl)-2H-indazole-6-carboxamide]: the EC50 was 2.73 µM. Regarding `CCn1cc2c(Oc3ccc(S(C)(=O)=O)cc3)cc(C(=O)Nc3ccccn3)cc2n1` [Example 1Q, 2-ethyl-4-[4-(methylsulfonyl)phenoxy]-N-pyridin-2-yl-2H-indazole-6-carboxamide], the EC50 worked out at 2.42 µM.

With `CCn1cc2c(Oc3ccc(S(C)(=O)=O)cc3)cc(C(=O)Nc3ccc(C)cn3)cc2n1` [Example 1R, 2-ethyl-N-(5-methylpyridin-2-yl)-4-[4-(methylsulfonyl)phenoxy]-2H-indazole-6-carboxamide], the 50% effective concentration (EC50) worked out at 1.41 µM.

In the case of `CCS(=O)(=O)c1ccc(Oc2cc(C(=O)Nc3ccccn3)cc3nn(C)cc23)cc1` [Example 1S, 4-[4-(ethylsulfonyl)phenoxy]-2-methyl-N-pyridin-2-yl-2H-indazole-6-carboxamide], the EC50 worked out at 1.34 µM. Turning to `CCS(=O)(=O)c1ccc(Oc2cc(C(=O)Nc3cnc(C)cn3)cc3nn(C)cc23)cc1` [Example 1T, 4-[4-(ethylsulfonyl)phenoxy]-2-methyl-N-(5-methylpyrazin-2-yl)-2H-indazole-6-carboxamide], the EC50 turned out to be 1.95 µM. Turning to `Cc1cnc(NC(=O)c2cc(Oc3ccc(S(=O)(=O)C4CC4)cc3)c3cn(C)nc3c2)cn1` [Example 1U, 4-[4-(cyclopropylsulfonyl)phenoxy]-2-methyl-N-(5-methylpyrazin-2-yl)-2H-indazole-6-carboxamide], the EC50 was 1.89 µM. For the compound `Cn1cc2c(Oc3ccc(S(=O)(=O)C4CC4)cc3)cc(C(=O)Nc3ccccn3)cc2n1` [Example 1V, 4-[4-(cyclopropylsulfonyl)phenoxy]-2-methyl-N-pyridin-2-yl-2H-indazole-6-carboxamide], the EC50 was determined as 1.5 µM. On the same count and under the same terms, the figure for `CCn1cc2c(Oc3ccc(S(=O)(=O)C4CC4)cc3)cc(C(=O)Nc3cnc(C)cn3)cc2n1` [Example 1W, 4-[4-(cyclopropylsulfonyl)phenoxy]-2-ethyl-N-(5-methylpyrazin-2-yl)-2H-indazole-6-carboxamide] is 1.48 µM; for `CCn1cc2c(Oc3ccc(S(=O)(=O)C4CC4)cc3)cc(C(=O)Nc3ccccn3)cc2n1` [Example 1X, 4-[4-(cyclopropylsulfonyl)phenoxy]-2-ethyl-N-pyridin-2-yl-2H-indazole-6-carboxamide] it is 0.863 µM. Turning to `Cc1ccc(NC(=O)c2cc(Oc3cnc(C(=O)N(C)C)nc3)c3cn(C)nc3c2)nc1` [Example 1Z, 4-{[2-(dimethylcarbamoyl)pyrimidin-5-yl]oxy}-2-methyl-N-(5-methylpyridin-2-yl)-2H-indazole-6-carboxamide], the EC50 is 1.08 µM.

Staying with this test, now noted: Assay 1; 5 mM glucose; read-out: Glucokinase EC50.
As for `Cc1cnc(NC(=O)c2cc(Oc3cnc(C(=O)N(C)C)nc3)c3cn(C)nc3c2)cn1` [Example 1Y, 4-{[2-(dimethylcarbamoyl)pyrimidin-5-yl]oxy}-2-methyl-N-(5-methylpyrazin-2-yl)-2H-indazole-6-carboxamide], the EC50 stood at 3.34 µM.
